Biological target: T1, human GPR119 (hGPR119) (Homo sapiens, UniProt Q8TDV5)
T1 construct: expressed in transfected cells; host or cells: CHO-K1
T1 sequence (Q8TDV5 1-335): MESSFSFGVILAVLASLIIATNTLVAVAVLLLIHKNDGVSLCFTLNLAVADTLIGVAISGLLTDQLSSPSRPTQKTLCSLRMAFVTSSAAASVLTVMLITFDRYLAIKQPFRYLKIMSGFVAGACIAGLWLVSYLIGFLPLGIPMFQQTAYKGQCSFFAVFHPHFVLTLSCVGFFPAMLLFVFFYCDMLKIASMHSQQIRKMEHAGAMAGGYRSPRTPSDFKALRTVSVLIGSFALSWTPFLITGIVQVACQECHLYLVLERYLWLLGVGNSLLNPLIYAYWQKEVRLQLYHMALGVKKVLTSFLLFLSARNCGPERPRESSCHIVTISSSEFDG
Assay: cAMP accumulation assay in CHO-K1 cells stably expressing hGPR119
Assay type: cell-based
Conditions: cAMP HTRF, 60 minutes
Procedure: CHO-K1 cells stably expressing human GPR119 (hGPR119) were prepared by transfection of a GPR119-carrying plasmid using Lipofectamine 2000 (following manufacturer instructions). A stable cell line was established using the limiting dilution method with geneticine selection. Assay-ready frozen (ARF) cells were prepared and used throughout the study.
The assay was performed in a 384-well plate format using the CAMP Gs dynamic assay kit from Cisbio. ARF cells expressing hGPR119 were thawed, washed and then resuspended in CAMP stimulation buffer at a cell density of 1.1×10^6 cells/mL. Cells were plated at a density of ~10,000 cells/well (9 μL/well). Dose response curves for the tested compounds were prepared in a cAMP stimulation buffer, containing 0.1% Tween 80 at 4 fold the final concentration. The compounds were then transferred to the cell plates using BRAVO (3 μL/well) and the plates were incubated for 60 minutes at 37° C./5% CO2. Detection buffer (10 μL, prepared as described in the CAMP Gs dynamic kit) were added to each well, and the plates were incubated at ambient temperature for 1 hr.
RT-FRET was measured using a ClarioSTAR plate reader, calculating the ratio between emissions at 665 nm and 620 nm (HTRF ratio). The HTRF ratio for positive (Max) and negative (Min) controls were used to normalize HTRF data and generate values for % activity. EC50 and Max activity values were determined using a standard 4-parameter fit.

## O=C(Cc1ccc(OCCCC2CCN(c3ncc(Cl)cn3)CC2)cc1F)N1CC(CNC[C@@H](O)[C@H](O)[C@H](O)CO)C1 [Compound A62, 2-[4-[3-[1-(5-chloropyrimidin-2-yl)-4-piperidyl]propoxy]-2-fluoro-phenyl]-1-[3-[[[(2R,3S,4R)-2,3,4,5-tetrahydroxypentyl]amino]methyl]azetidin-1-yl]ethanone]
  EC50: ≤ 100 nM

## O=C(Cc1ccc(OCCCC2CCN(c3ncc(Cl)cn3)CC2)cc1F)N1CC(CNC[C@H](O)[C@@H](O)[C@H](O)CO)C1 [Compound A61, 2-[4-[3-[1-(5-chloropyrimidin-2-yl)-4-piperidyl]propoxy]-2-fluoro-phenyl]-1-[3-[[[(2S,3R,4R)-2,3,4,5-tetrahydroxypentyl]amino]methyl]azetidin-1-yl]ethanone]
  EC50: ≤ 100 nM

## O=C(Cc1ccc(OCCCC2CCN(c3ncc(Cl)cn3)CC2)cc1F)N1CC(CNCCOCCOCCO)C1 [Compound A23]
  EC50: ≤ 100 nM

## O=C(Cc1ccc(OCCCC2CCN(c3ncc(Cl)cn3)CC2)cc1F)N1CC(CCNC[C@H](O)[C@@H](O)[C@H](O)[C@H](O)CO)C1 [Compound A31, 2-[4-[3-[1-(5-chloropyrimidin-2-yl)-4-piperidyl]propoxy]-2-fluoro-phenyl]-1-[3-[2-[[(2S,3R,4R,5R)-2,3,4,5,6-pentahydroxyhexyl]amino]ethyl]azetidin-1-yl]ethanone]
  EC50: 100 to 1000 nM

## O=C(Cc1ccc(OCCCC2CCN(c3ncc(Cl)cn3)CC2)cc1F)N1CC(CN2C[C@H](O)[C@@H](O)C2)C1 (stereo in doubt) [Compound A18, 2-[4-[3-[1-(5-chloropyrimidin-2-yl)-4-piperidyl]propoxy]-2-fluoro-phenyl]-1-[3-[[rac-(3S,4S)-3,4-dihydroxypyrrolidin-1-yl]methyl]azetidin-1-yl]ethanone]
  EC50: ≤ 100 nM

## CCCc1cnc(N2CCC(CCCOc3ccc(CC(=O)N4CC(CNCC(O)(CO)CO)C4)c(F)c3)CC2)nc1 [Compound A41, 1-(3-(((2,3-dihydroxy-2-(hydroxymethyl)propyl)amino)methyl)azetidin-1-yl)-2-(2-fluoro-4-(3-(1-(5-propylpyrimidin-2-yl)piperidin-4-yl)propoxy)phenyl)ethan-1-one]
  EC50: ≤ 100 nM

## O=C(CC1CN(C(=O)Cc2ccc(OCCCC3CCN(c4ncc(Cl)cn4)CC3)cc2F)C1)NC(CO)(CO)CO [Compound A7, 2-[1-[2-[4-[3-[1-(5-chloropyrimidin-2-yl)-4-piperidyl]propoxy]-2-fluoro-phenyl]acetyl]azetidin-3-yl]-N-[2-hydroxy-1,1-bis(hydroxymethyl)ethyl]acetamide]
  EC50: 100 to 1000 nM

## O=C(NCCS(=O)(=O)O)C1CN(C(=O)Cc2ccc(OCCCC3CCN(c4ncc(Cl)cn4)CC3)cc2F)C1 [Compound A63, 2-[[1-[2-[4-[3-[1-(5-chloropyrimidin-2-yl)-4-piperidyl]propoxy]-2-fluoro-phenyl]acetyl]azetidine-3-carbonyl]amino]ethanesulfonic acid]
  EC50: 100 to 1000 nM

## O=C(CC1CN(C(=O)Cc2ccc(OCCCC3CCN(c4ncc(Cl)cn4)CC3)cc2F)C1)NCCCCS(=O)(=O)O [Compound A70, 4-[[2-[1-[2-[4-[3-[1-(5-chloropyrimidin-2-yl)-4-piperidyl]propoxy]-2-fluoro-phenyl]acetyl]azetidin-3-yl]acetyl]amino]butane-1-sulfonic acid]
  EC50: 100 to 1000 nM

## CCc1cnc(N2CCC(CCCOc3cc(F)c(CC(=O)N4CC(CNCC(O)(CO)CO)C4)c(F)c3)CC2)nc1 [Compound A37, 1-(3-(((2,3-dihydroxy-2-(hydroxymethyl)propyl)amino)methyl)azetidin-1-yl)-2-(4-(3-(1-(5-ethylpyrimidin-2-yl)piperidin-4-yl)propoxy)-2,6-difluorophenyl)ethan-1-one]
  EC50: ≤ 100 nM

## O=C(Cc1ccc(OCCCC2CCN(c3ncc(Cl)cn3)CC2)cc1F)N1CC(CNCC(CO)CO)C1 [Compound A17]
  EC50: ≤ 100 nM

## O=C(Cc1ccc(OCCCC2CCN(c3ncc(Cl)cn3)CC2)cc1F)N1CC(CCNC(CO)(CO)CO)C1 [Compound A29, 2-(4-(3-(1-(5-chloropyrimidin-2-yl)piperidin-4-yl)propoxy)-2-fluorophenyl)-1-(3-(2-((1,3-dihydroxy-2-(hydroxymethyl)propan-2-yl)amino)ethyl)azetidin-1-yl)ethan-1-one]
  EC50: 100 to 1000 nM

## COCc1cnc(N2CCC(CCCOc3ccc(CC(=O)N4CC(C(=O)NC[C@H](O)[C@@H](O)[C@H](O)[C@H](O)CO)C4)c(F)c3)CC2)nc1 (racemic) [Compound A12, 1-[2-[2-fluoro-4-[3-[1-[5-(methoxymethyl)pyrimidin-2-yl]-4-piperidyl]propoxy]phenyl]acetyl]-N-[rac-(2S,3R,4R,5R)-2,3,4,5,6-pentahydroxyhexyl]azetidine-3-carboxamide]
  EC50: 100 to 1000 nM

## CCCc1cnc(N2CCC(CCCOc3ccc(CC(=O)N4CC(CNC[C@H](O)[C@@H](O)[C@H](O)[C@H](O)CO)C4)c(F)c3)CC2)nc1 [Compound A44, 2-(2-fluoro-4-(3-(1-(5-propylpyrimidin-2-yl)piperidin-4-yl)propoxy)phenyl)-1-(3-((((2S,3R,4R,5R)-2,3,4,5,6-pentahydroxyhexyl)amino)methyl)azetidin-1-yl)ethan-1-one]
  EC50: 100 to 1000 nM

## COCc1cnc(N2CCC(CCCOc3cc(F)c(CC(=O)N4CC(CNC[C@H](O)[C@@H](O)[C@H](O)[C@H](O)CO)C4)c(F)c3)CC2)nc1 [Compound A56]
  EC50: 100 to 1000 nM

## O=C(Cc1ccc(OCCCC2CCN(c3ncc(Cl)cn3)CC2)cc1F)N1CC(CN2C[C@@H](O)[C@@H](O)[C@@H](O)C2)C1 [Compound A22, 2-[4-[3-[1-(5-chloropyrimidin-2-yl)-4-piperidyl]propoxy]-2-fluoro-phenyl]-1-[3-[[rac-(3R,5S)-3,4,5-trihydroxy-1-piperidyl]methyl]azetidin-1-yl]ethanone]
  EC50: ≤ 100 nM

## O=C(Cc1ccc(OCCCC2CCN(c3ncc(Cl)cn3)CC2)cc1F)N1CC(CNC[C@H](O)[C@@H](O)[C@H](O)[C@H](O)CO)C1 [Compound A14, 2-[4-[3-[1-(5-chloropyrimidin-2-yl)-4-piperidyl]propoxy]-2-fluoro-phenyl]-1-[3-[[[(2S,3R,4R,5R)-2,3,4,5,6-pentahydroxyhexyl]amino]methyl]azetidin-1-yl]ethanone]
  EC50: 100 to 1000 nM

## O=C(NCCCCCS(=O)(=O)O)C1CN(C(=O)Cc2ccc(OCCCC3CCN(c4ncc(Cl)cn4)CC3)cc2F)C1 [Compound A66, 5-[[1-[2-[4-[3-[1-(5-chloropyrimidin-2-yl)-4-piperidyl]propoxy]-2-fluoro-phenyl]acetyl]azetidine-3-carbonyl]amino]pentane-1-sulfonic acid]
  EC50: 100 to 1000 nM

## O=C(NCCNCCC1CN(C(=O)Cc2ccc(OCCCC3CCN(c4ncc(Cl)cn4)CC3)cc2F)C1)NC(CO)(CO)CO [Compound A30, 1-(2-((2-(1-(2-(4-(3-(1-(5-chloropyrimidin-2-yl)piperidin-4-yl)propoxy)-2-fluorophenyl)acetyl)azetidin-3-yl)ethyl)amino)ethyl)-3-(1,3-dihydroxy-2-(hydroxymethyl)propan-2-yl)urea]
  EC50: 100 to 1000 nM

## O=C(NCC(O)(CO)CO)C1CN(C(=O)Cc2ccc(OCCCC3CCN(c4ncc(Cl)cn4)CC3)cc2F)C1 [Compound A5, 1-[2-[4-[3-[1-(5-chloropyrimidin-2-yl)-4-piperidyl]propoxy]-2-fluoro-phenyl]acetyl]-N-[2,3-dihydroxy-2-(hydroxymethyl)propyl]azetidine-3-carboxamide]
  EC50: ≤ 100 nM

## COCc1cnc(N2CCC(CCCOc3ccc(CC(=O)N4CC(CNCC[C@@H](O)C[C@@H](O)CC(=O)O)C4)c(F)c3)CC2)nc1 [Compound A52, (3R,5R)-7-[[1-[2-[2-fluoro-4-[3-[1-[5-(methoxymethyl)pyrimidin-2-yl]-4-piperidyl]propoxy]phenyl]acetyl]azetidin-3-yl]methylamino]-3,5-dihydroxy-heptanoic acid]
  EC50: 100 to 1000 nM

## CCCc1cnc(N2CCC(CCCOc3cc(F)c(CC(=O)N4CC(CNC(CO)(CO)CO)C4)c(F)c3)CC2)nc1 [Compound A46, 2-(2,6-difluoro-4-(3-(1-(5-propylpyrimidin-2-yl)piperidin-4-yl)propoxy)phenyl)-1-(3-(((1,3-dihydroxy-2-(hydroxymethyl)propan-2-yl)amino)methyl)azetidin-1-yl)ethan-1-one]
  EC50: ≤ 100 nM

## O=C(Cc1ccc(OCCCC2CCN(c3ncc(Cl)cn3)CC2)cc1F)N1CC(CNC(CO)(CO)CO)C1 [Compound A16, 2-[4-[3-[1-(5-chloropyrimidin-2-yl)-4-piperidyl]propoxy]-2-fluoro-phenyl]-1-[3-[[[2-hydroxy-1,1-bis(hydroxymethyl)ethyl]amino]methyl]azetidin-1-yl]ethanone]
  EC50: ≤ 100 nM

From patent publication US20260191858A1, “COMBINATION THERAPIES” (Kallyope, Inc., priority 2022, published 2026)
